Experimental data taken from patent US11214556B1, “Method of treating colorectal cancer” (King Abdulaziz University, priority 2019, dated 2022).

Key:
HCT-116 cells = assay: SRB cytotoxicity assay, HCT-116; format: cell-based, human; conditions: SRB assay, 72 h exposure, ± SEM
Protocol: Compounds in this study were tested against colorectal cancer cell line HCT-116, using sulforhodamine-B (SRB) assay. See Skehan, P.; Storeng, R.; Scudiero, D.; Monks, A.; McMahon, J.; Vistica, D.; Warren, J. T.; Bokesch, H.; Kenney, S.; Boyd, M. R., New colorimetric cytotoxicity assay for anticancer-drug screening. J Natl Cancer Inst 1990, 82 (13), 1107-12, incorporated herein by reference in its entirety. […] However, it was clear that compounds bearing hydrophobic aliphatic groups such as MOS-1505 and MOS-1512 are clearly favored in providing anticancer activities. […] The N-aryl substituents were less advantageous in both potency and solubility.
(§1) Different cell lines were originally purchased from American type culture collection (ATCC, Wesel, Germany) and grown in the tissue culture lab of the Egyptian company for production of vaccines, sera and drugs (Vacsera, Giza, Egypt). The cells were transferred to our laboratory and maintained in the appropriate media as following. HCT-116, CACO-2, and HT-29 (human colon cancer cell lines) were maintained in Roswell Park Memorial Institute medium (RPMI1640) (Invitrogen, Carlsbad, Calif.). The mouse skin fibroblasts (C-166) and Baby Hamster Kidney fibroblasts (BHK) were grown in Dulbecco Modified Eagle's medium (DMEM). Both media were supplemented with 1% of […] of streptomycin, 100 units/mL of penicillin and 10% of heat-inactivated fetal bovine serum (Invitrogen, Carlsbad, Calif.) in a humidified, 5% (v/v) CO2 atmosphere at 37° C.
(§2) The sulforhodamine B (SRB) assays were performed according to Skehan, P.; Storeng, R.; Scudiero, D.; Monks, A.; McMahon, J.; Vistica, D.; Warren, J. T.; Bokesch, H.; Kenney, S.; Boyd, M. R., New colorimetric cytotoxicity assay for anticancer-drug screening. J Natl Cancer Inst 1990, 82 (13), 1107-12, incorporated herein by reference in its entirety. Briefly, exponentially growing cells were trypsinized, counted and seeded at the appropriate densities (5000 cells/100 μL/well) into 96-well microtiter plates. Cells were incubated in a humidified atmosphere at 37° C. for 24 h. Then, the cells were exposed to different compounds at the desired concentrations, (0.01, 0.1, 1, 10, and 100 μM) or to 1% dimethyl sulfoxide (DMSO) for 72 h. At the end of the treatment period, the media were removed, and the cells were fixed with 10% trichloroacetic acid at 4° C. for 1 hr. Following, the cells were washed with tap water four times and incubated with SRB 0.4% for 30 min. Excess dye was removed by washing repeatedly with 1% (vol/vol) acetic acid. The protein-bound dye was dissolved in 10 mM Tris base solution for (optical density) OD determination at 510 nm using a SpectraMax plus Microplate Reader (Molecular Devices, CA). Cell viability was expressed relative to the untreated control cells.

Solubility profile = format: physicochemical; conditions: stated in words together with C log P
HT-29 cells = assay: SRB cytotoxicity assay, HT-29; format: cell-based, human; conditions: 72 h exposure, ± SEM
Source text: (§3) Based on the favorable pharmacologic and physicochemical properties of MOS-1512, it was selected as a new lead for the second subset of compounds (MOS-1812 to MOS-5112). The compounds in this series contained variable groups at R^1 and R^2 that were all tested against the three cancer cell lines (HCT-116, Caco-2 and HT-29).
as §1, §2

[1] = tested on: CRC cell lines (HCT-116, Caco-2 and HT-29); assay: Cytotoxic activities against CRC cell lines (statement over three lines); format: cell-based; conditions: Homo sapiens
Source text: as §3, §1, §2

CACO-2 cells = assay: SRB cytotoxicity assay, CACO-2; format: cell-based, human; conditions: ± SEM
Source text: as §3, §1, §2

[2] = Homo sapiens, Caco-2, 72 h exposure

Row | SMILES | IC50 (HCT-116 cells; Homo sapiens, HCT-116) [µM] | IC50 (HT-29 cells; Homo sapiens, HT-29, monolayer) [µM] | IC50 (CACO-2 cells; [2]) [µM] | other results
1 | CCOC(=O)/C(=C/c1ccccc1)NC(=O)C=Cc1ccccc1 [Compound 15EE, Ethyl (Z)-2-cinnamamido-3-phenylacrylate] | – | – | – | melting point: 153 °C
2 | O=C(C=Cc1ccccc1)N/C(=C\c1ccccc1)C(=O)NC1CCCC1 [Compound 1503, (Z)-2-cinnamamido-N-cyclopentyl-3-phenylacrylamide] | 48.5 ± 3.1 | – | – | melting point: 239 °C
3 | O=C(C=Cc1ccccc1)N/C(=C\c1ccccc1)C(=O)NC12CC3CC(CC(C3)C1)C2 [Compound 1505, (Z)—N-(1-adamantanyl)-2-cinnamamido-3-phenylacrylamide] | 14.7 ± 0.3 | – | – | solubility (Solubility profile): poor solubility
4 | O=C(/C=C/c1ccccc1)N/C(=C\c1ccccc1)C(=O)Nc1cccnc1 [Compound 1507, (Z)-2-[(E)-cinnamamido]-3-phenyl-N-(3-pyridyl)acrylamide] | > 100 | – | – | melting point: > 250 °C (dec.)
5 | O=C(/C=C/c1ccccc1)N/C(=C\c1ccccc1)C(=O)NCCO [Compound 1532, (Z)-2-[(E)-cinnamamido]-N-(2-hydroxyethyl)-3-phenyl-acrylamide] | > 100 | – | – | melting point: 204 °C
6 | CCCNC(=O)/C(=C/c1ccc(F)cc1)NC(=O)/C=C/c1ccc(Cl)cc1 [Compound 2312, (Z)-2-[(E)-3-(4-chlorophenyl)acrylamido]-3-(4-fluorophenyl)-N-propylacrylamide] | 3.8 ± 0.24 | 4 ± 0.14 | 2.6 ± 0.233 | IC50 [1]: < 5 µM
7 | CCCNC(=O)/C(=C/c1ccc(N(C)C)cc1)NC(=O)/C=C/c1ccc(Cl)cc1 [Compound 2812, (Z)-2-[(E)-3-(4-chlorophenyl)acrylamido]-3-[4-(dimethylamino)phenyl]-N-propylacrylamide] | 20.7 ± 0.32 | 9.52 ± 0.42 | 17 ± 0.8 | IC50 [1]: < 5 µM
8 | CCCNC(=O)/C(=C/c1c[nH]c2ccccc12)NC(=O)/C=C/c1ccc(Cl)cc1 [Compound 3812, (Z)-2-[(E)-3-(4-chlorophenyl)acrylamido]-3-(1H-indol-3-yl)-N-propylacrylamide] | 3.51 ± 0.21 | 3.41 ± 0.03 | 3.35 ± 0.05 | IC50 [1]: < 5 µM
9 | CCCNC(=O)/C(=C/c1c[nH]c2ccccc12)NC(=O)/C=C/c1ccc(OC)cc1 [Compound 3912, (Z)-3-(1H-indol-3-yl)-2-[(E)-3-(4-methoxyphenyl)acrylamido]-N-propylacrylamide] | 4.35 ± 0.29 | 2.49 ± 0.04 | 2.07 ± 0.03 | IC50 [1]: < 5 µM
10 | CCCNC(=O)/C(=C/c1cccnc1)NC(=O)C=Cc1ccccc1 [Compound 4212, (Z)-2-cinnamamido-N-propyl-3-(pyridin-3-yl)acrylamide] | 73 ± 2.5 | > 100 | 66 ± 2.2 | –
11 | CCCNC(=O)/C(=C/c1cccnc1)NC(=O)/C=C/c1ccc(Cl)cc1 [Compound 4312, (Z)-2-[(E)-3-(4-chlorophenyl)acrylamido]-N-propyl-3-(pyridin-3-yl)acrylamide] | 49.4 ± 1.9 | 36 ± 1.7 | 47.3 ± 1.9 | –
12 | CCCNC(=O)/C(=C/c1cccnc1)NC(=O)/C=C/c1ccc(OC)cc1 [Compound 4412, (Z)-2-[(E)-3-(4-methoxyphenyl)acrylamido]-N-propyl-3-(pyridin-3-yl)acrylamide] | 52.1 ± 1.6 | 72.7 ± 6.4 | 38.1 ± 2 | –
13 | CCCNC(=O)/C(=C/c1cccnc1)NC(=O)/C=C/c1ccc(C)cc1 [Compound 4512, (Z)—N-propyl-3-(pyridin-3-yl)-2-[(E)-3-(p-tolyl)acrylamidolacry]amide] | – | – | – | IC50 (HT-29 cells; monolayer): > 100 µM; IC50 (HCT-116 cells): > 100 µM; IC50 (CACO-2 cells; 72 h exposure): 27 ± 1.8 µM
14 | CCCNC(=O)/C(=C/c1cccnc1)NC(=O)/C=C/c1cccs1 [Compound 4612, (Z)—N-propyl-3-(pyridin-3-yl)-2-[(E)-3-(thien-2-yl)acrylamidolacry]amide] | – | – | – | IC50 (HT-29 cells; monolayer): 68.8 ± 6.9 µM; IC50 (HCT-116 cells): > 100 µM; IC50 (CACO-2 cells; 72 h exposure): 41.8 ± 1.4 µM
15 | CCCNC(=O)/C(=C/c1ccc([N+](=O)[O-])cc1)NC(=O)C=Cc1ccccc1 [Compound 4712, (Z)-2-cinnamamido-3-(4-nitrophenyl)-N-propylacrylamide] | 17.3 ± 1.3 | 23.2 ± 1.9 | 44.2 ± 2.7 | –
16 | CCCNC(=O)/C(=C/c1ccc([N+](=O)[O-])cc1)NC(=O)/C=C/c1ccc(Cl)cc1 [Compound 4812, (Z)-2-[(E)-3-(4-chlorophenyl)acrylamido]-3-(4-nitrophenyl)-N-propylacrylamide] | > 100 | 36.9 ± 1.5 | > 100 | –
17 | CCCNC(=O)/C(=C/c1ccc([N+](=O)[O-])cc1)NC(=O)/C=C/c1ccc(OC)cc1 [Compound 4912, (Z)-2-[(E)-3-(4-methoxyphenyl)acrylamido]-3-(4-nitrophenyl)-N-propylacrylamide] | > 100 | 74.3 ± 3.6 | > 100 | –
18 | CCCNC(=O)/C(=C/c1ccc([N+](=O)[O-])cc1)NC(=O)/C=C/c1ccc(C)cc1 [Compound 5012, (Z)-3-(4-nitrophenyl)-N-propyl-2-[(E)-3-(p-tolyl)acrylamidolacry]amide] | – | – | – | IC50 (HT-29 cells; monolayer): > 100 µM; IC50 (HCT-116 cells): > 100 µM; IC50 (CACO-2 cells; 72 h exposure): > 100 µM
19 | CCCNC(=O)/C(=C/c1ccc([N+](=O)[O-])cc1)NC(=O)/C=C/c1cccs1 [Compound 5112, (Z)-3-(4-nitrophenyl)-N-propyl-2-[(E)-3-(thien-2-yl)acrylamidolacry]amide] | – | – | – | IC50 (HT-29 cells; monolayer): > 100 µM; IC50 (HCT-116 cells): > 100 µM; IC50 (CACO-2 cells; 72 h exposure): 34.2 ± 1.1 µM
20 | COc1cccc2c1C(=O)c1c(O)c3c(c(O)c1C2=O)C[C@@](O)(C(=O)CO)C[C@@H]3O[C@H]1C[C@H](N)[C@H](O)[C@H](C)O1 [Doxo, doxorubicin, reference compound] | 0.6 ± 0.1 | 0.3 ± 0.01 | 0.14 ± 0.05 | –
